Legend:
Assay type in all cases: cell-based, cats
[1] = test system: biofilms representative of feline dental plaque; test: Feline plate biofilm assay (PBA): biomass quantification (crystal violet assay); conditions: 48 hours biofilm, OD595, extracts at 500 μg/ml, vs no active control
Protocol: (§1) The assay requires fresh supragingival feline dental plaque and saliva for inoculation. The inoculum consists of pooled dental plaque and unfiltered saliva sampled from a group of 18 cats, varying in age, breed and oral health status.
(§2) The plaque and saliva were resuspended in artificial saliva to form the inoculum of approximately 10% plaque and 30% saliva.
(§3) The plate biofilm assay (PBA) utilises a 24 well plate format in which biofilms, representative of feline dental plaque, are grown on hydroxyapatite (HA) discs. Prior to being introduced to the 24 well assay plate, each HA disc is preconditioned for 2 hours in a solution of 50% filter sterilised feline saliva in artificial feline saliva. The preconditioning step stimulates the formation of a salivary pellicle on the HA disc surface. […] Each HA disc, with the exception of those being used for biomass quantification, is placed into 500 μl PBS and vortex mixed for 30 seconds to remove biofilm growth from the disc into solution. […] Biofilm-covered HA discs that are being used for biomass quantification are removed from the 24 well assay plate and used directly in the crystal violet assay.
The total amount of biofilm grown on the HA discs was quantified using the crystal violet staining method. Biomass was represented as being directly proportional to the OD reading at 595 nm (OD595) of the samples compared to controls. […]

[2] = test system: Trypsin-like protease activity; test: Feline plate biofilm assay (PBA): protease activity (liquid BAPNA assay); conditions: 48 hours biofilm, extracts at 500 μg/ml, vs no active control
Protocol: as §1, §2, §3
Trypsin-like protease activity was measured using the liquid BAPNA assay, a colourimetric assay in which the amount of trypsin present in a sample is directly proportional to the intensity of the colour developed. […]

[3] = test system: Aerobes; test: Feline plate biofilm assay (PBA): bacterial viable counts, aerobes; conditions: 48 hours biofilm, extracts at 500 μg/ml, vs no active control
Protocol: as §1, §2
as §3, with “saliva.” for “saliva. The preconditioning step stimulates the formation of a salivary pellicle on the HA disc surface.”
(§4) Viable numbers of bacteria were quantified using Columbia blood agar plates supplemented with haemin and menadione. Aerobes were counted after incubation for 2 days and anaerobes, including black pigmenting colonies (BPC), were counted after incubation at appropriate conditions for 9 days. […]

[4] = test system: anaerobes; test: Feline plate biofilm assay (PBA): bacterial viable counts, anaerobes; conditions: 48 hours biofilm, extracts at 500 μg/ml, vs no active control
Protocol: as §1, §2
as §3, with “saliva.” for “saliva. The preconditioning step stimulates the formation of a salivary pellicle on the HA disc surface.”
as §4

[5] = test system: black pigmenting colonies (BPC); test: Feline plate biofilm assay (PBA): bacterial viable counts, black pigmenting colonies; conditions: 48 hours biofilm, extracts at 500 μg/ml, vs no active control
Protocol: as §1, §2
as §3, with “saliva.” for “saliva. The preconditioning step stimulates the formation of a salivary pellicle on the HA disc surface.”
as §4

[H]/N=C(\N/C(=N/[H])NCCCCCCNC(=N)NC(=N)Nc1ccc(Cl)cc1)Nc1ccc(Cl)cc1 [Chlorhexidine, chlorhexidine]
Biomass (% reduction) [1]: 79.0%
Protease (% reduction) [2]: 90.0%
Aerobe (Log 10 reduction) [3]: 1.91 Log 10
Anaerobe (Log 10 reduction) [4]: 2.16 Log 10
BPC (Log 10 reduction) [5]: 4.86 Log 10

Reference: US20100061943A1, “ORAL HEALTH COMPOSITION COMPRISING ALCHEMILLA VULGARIS” (MARS INCORPORATED, priority 2006, published 2010)
